Data: patent US11001583B2, “Dihydropyrrolopyridine inhibitors of ROR-gamma” (Vitae Pharmaceuticals, LLC, priority 2014, dated 2021)

How the values were obtained:
[1] = biological target: hERG (human ether-à-go-go-related gene) potassium ion channel (Homo sapiens (Human), UniProt Q12809); test: hERG Assay (Assay 4); format: cell-based; details: patch clamp, HEK 293 cells
Description: Compounds of the invention were tested in vitro against the hERG (human ether-à-go-go-related gene) potassium ion channel (a surrogate for IKr, the rapidly activating delayed rectifier cardiac potassium ion channel).
The buffer was HEPES-buffered physiological saline (HB-PS) solution composed of: 137 mM NaCl, 4.0 mM KCl, 1.8 mM CaCl2, 1 mM MgCl2, 10 mM HEPES, 10 mM glucose, pH adjusted to 7.4 with NaOH, and 0.3% DMSO. Chemicals used in solution preparation were purchased from Sigma-Aldrich (St. Louis, Mo.), unless otherwise noted, and were of ACS reagent grade purity or higher.
HEK (human embryonic kidney) 293 cells were stably transfected with hERG cDNA.
For the patch clamp experiment, onset and steady state inhibition of hERG potassium current was measured using a pulse pattern with fixed amplitudes (depolarization: +20 mV for 2 s; repolarization: −50 mV for 2 s) repeated at 10 s intervals from a holding potential of −80 mV. Peak tail current was measured during the 2 s step to −50 mV. A steady state was maintained for at least 30 seconds before applying compound or positive control (cisapride). Peak tail currents were measured until a new steady state was achieved.
Data acquisition and analyses were performed using the suite of pCLAMP® (ver. 8.2) programs (MDS Analytical Technologies, Sunnyvale, Calif.). Steady state was defined by the limiting constant rate of change with time (linear time dependence). The steady state before and after each compound application was used to calculate the percentage of current inhibited at each concentration.
Concentration-response data were fit to an equation of the following form: % Inhibition={1−1/[1+([Test]/IC50)N]}*100
where [Test] was the compound concentration, IC50 was the compound concentration at half-maximal inhibition, N was the Hill coefficient, and % Inhibition was the percentage of current inhibited at each compound concentration. Nonlinear least squares fits were solved with the Solver add-in for Excel 2003 (Microsoft, Wash.) and the IC50 was calculated.

full-length RORγt = full-length RORγt (Homo sapiens (Human), UniProt P51449); test: RORγt 5×RORE Assay in Jurkat Cells (Assay 2); format: cell-based; details: 5×RORE luciferase reporter, read-out: RORγt5X IC50 Range (nM) (Assay 2)
Sequence of full-length RORγt (P51449 other isoform, or with tags, fused parts or gaps): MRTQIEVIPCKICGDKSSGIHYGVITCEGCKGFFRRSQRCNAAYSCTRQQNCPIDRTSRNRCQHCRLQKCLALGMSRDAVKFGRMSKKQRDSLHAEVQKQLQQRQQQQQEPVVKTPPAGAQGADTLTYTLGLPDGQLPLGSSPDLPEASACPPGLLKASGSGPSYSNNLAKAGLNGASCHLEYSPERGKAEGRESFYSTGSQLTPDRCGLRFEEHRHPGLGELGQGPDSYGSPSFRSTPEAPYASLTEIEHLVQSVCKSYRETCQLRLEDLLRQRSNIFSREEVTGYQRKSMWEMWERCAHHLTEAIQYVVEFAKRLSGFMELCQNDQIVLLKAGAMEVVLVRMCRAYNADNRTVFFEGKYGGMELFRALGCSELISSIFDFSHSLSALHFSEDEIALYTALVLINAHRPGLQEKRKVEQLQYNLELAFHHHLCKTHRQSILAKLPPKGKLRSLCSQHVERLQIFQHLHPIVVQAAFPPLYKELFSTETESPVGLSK
Description: RORγt 5×RORE Assay in Jurkat Cells (Assay 2)
Compounds of the present invention were tested for RORγ inverse agonist activity in a cell-based, transcriptional activity assay. […] (Promega, Cat. #N1021) using KpnI and HindIII restriction sites. […] Tested compounds were added to the cells in the same media (final concentration of DMSO was 0.1% (v/v)), and the plates were incubated at 37° C./5% CO2 for 16-18 hr. Luciferase activity in the conditioned supernatants was determined with NanoGlo® assay reagents (Promega, Cat. #N1130).

[2] = biological target: recombinant RORγ Ligand Binding Domain (LBD) protein (Homo sapiens (Human), UniProt P51449); test: Radio-Ligand RORγ Binding Assay (Assay 1); details: competition with 25-hydroxy [26,27-3H]-cholesterol, SPA; read-out: RORγ Binding Ki Range (nM) (Assay 1)
Sequence of recombinant RORγ Ligand Binding Domain (LBD) protein (P51449 269-508): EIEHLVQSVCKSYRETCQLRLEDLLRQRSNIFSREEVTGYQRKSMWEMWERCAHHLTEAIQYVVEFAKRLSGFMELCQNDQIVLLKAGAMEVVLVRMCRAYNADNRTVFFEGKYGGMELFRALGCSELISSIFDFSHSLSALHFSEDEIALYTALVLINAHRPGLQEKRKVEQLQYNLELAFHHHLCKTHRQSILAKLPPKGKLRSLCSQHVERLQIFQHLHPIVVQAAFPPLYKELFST
Description: Radio-Ligand RORγ Binding Assay (Assay 1)
Compounds of the present invention were tested for ability to bind to RORγ in a cell-free competition assay with commercially available radio-ligand (RL), 25-hydroxy [26,27-^3H]-cholesterol (PerkinElmer, Cat. #NET674250UC), for a ligand binding site on a recombinant RORγ Ligand Binding Domain (LBD) protein expressed as a 6×His-Glutathione-S-Transferase (GST) fusion. […] The plate was shaken at 700 rpm for 20 min and incubated for 10 min at rt, after which 40 μL of poly-Lys YSi SPA beads (PerkinElmer, Cat. #RPNQ0010) were added to achieve 50 μg of the beads per well. The plate was incubated on an orbital shaker for 20 min and then for 10 min without agitation at rt. SPA signal for tritium beta radiation was registered on PerkinElmer Microbeta plate reader. […] The percent inhibition vs. concentration data were fit into a four-parameter model, and IC50 values were calculated from the fit as the concentrations corresponding to the inflection points on the dose-response curves.

IL-17A production = test: Human Whole Blood Assay (Assay 3); format: cell-based; details: IL-17A secretion, 50% blood/media
Description: Human Whole Blood Assay (Assay 3)
Compounds of the invention were tested in the human whole blood assay to measure their effects on IL-17A production as determined by cytokine secretion into 50% blood/media supernatant. Mixtures of sodium heparinized whole blood (isolated from healthy human donors) and the T cell activator CytoStim, in the presence or absence of compound, were plated in sterilized, tissue culture-treated 24-well plates. Specifically, the mixtures in each well were as follows: (1) 500 μL of whole blood, (2) 250 μL of compound diluted into RPMI-1640 media containing 10% HyClone™ FCS (Thermo Fisher Scientific, Waltham, Mass.), Gibco® Pen/Strep and Gibco® NEAA (Life Technologies, Grand Island, N.Y.), and (3) 250 μL, of CytoStim (Miltenyi Biotech, Germany) diluted to a final concentration of 10 μL/mL in complete cell culture medium.
Mixtures were incubated at 37° C./5% CO2 for 48 h, after which, 200 μL of clean supernatant (i.e., no red blood cells) from each well was transferred to a well in a 96-well plate. IL-17A cytokine expression was determined using 25 μL of the transferred supernatant diluted with 25 μL of Diluent 43 from the Human IL-17A V-PLEX™ kit (cat. #K151RFD-4, Meso Scale Discovery, Rockville, Md.). The assay was performed according to the manufacturer's instructions using included reagents. The IL-17A V-PLEX™ plates were read using the Meso Scale Discovery Imager (Model 1200). The levels of IL-17A were extrapolated from a standard curve using a four-parameter non-linear fitting model and expressed as pg/mL. These values were regressed against concentrations of the tested compounds to derive IC50 values using a four-parameter non-linear fitting model.

Sequence of hERG (human ether-à-go-go-related gene) potassium ion channel (Q12809 whole entry): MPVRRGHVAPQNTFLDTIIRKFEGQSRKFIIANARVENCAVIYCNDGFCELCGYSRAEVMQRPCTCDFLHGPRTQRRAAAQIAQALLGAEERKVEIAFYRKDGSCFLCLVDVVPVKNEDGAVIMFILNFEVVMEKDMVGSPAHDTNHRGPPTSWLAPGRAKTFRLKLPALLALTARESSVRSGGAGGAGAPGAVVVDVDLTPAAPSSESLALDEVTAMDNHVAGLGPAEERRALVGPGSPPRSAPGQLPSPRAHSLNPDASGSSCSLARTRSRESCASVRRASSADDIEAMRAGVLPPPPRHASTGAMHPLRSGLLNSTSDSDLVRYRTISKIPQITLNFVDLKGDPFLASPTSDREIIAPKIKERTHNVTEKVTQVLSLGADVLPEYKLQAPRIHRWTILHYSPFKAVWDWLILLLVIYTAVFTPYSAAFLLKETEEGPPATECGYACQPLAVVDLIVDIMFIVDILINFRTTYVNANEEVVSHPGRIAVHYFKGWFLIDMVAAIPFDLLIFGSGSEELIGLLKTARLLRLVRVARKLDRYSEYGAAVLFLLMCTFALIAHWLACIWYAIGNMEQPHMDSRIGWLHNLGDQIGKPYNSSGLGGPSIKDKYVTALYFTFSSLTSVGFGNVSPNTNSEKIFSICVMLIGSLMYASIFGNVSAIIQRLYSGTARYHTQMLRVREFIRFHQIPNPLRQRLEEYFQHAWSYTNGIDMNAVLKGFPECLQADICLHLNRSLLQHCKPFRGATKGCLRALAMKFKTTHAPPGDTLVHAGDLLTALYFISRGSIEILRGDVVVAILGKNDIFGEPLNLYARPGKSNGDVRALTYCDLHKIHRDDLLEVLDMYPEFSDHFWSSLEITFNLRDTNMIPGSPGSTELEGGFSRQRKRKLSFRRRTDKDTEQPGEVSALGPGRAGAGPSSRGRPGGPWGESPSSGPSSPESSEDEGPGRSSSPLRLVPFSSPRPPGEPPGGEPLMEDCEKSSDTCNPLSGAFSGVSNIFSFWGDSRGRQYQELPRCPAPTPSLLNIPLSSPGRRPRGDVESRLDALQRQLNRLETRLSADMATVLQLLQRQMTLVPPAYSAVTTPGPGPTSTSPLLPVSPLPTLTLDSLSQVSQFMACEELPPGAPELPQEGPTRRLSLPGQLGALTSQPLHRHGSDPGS

Row | SMILES | hERG Assay (Compound at 3 μM) % Inhibition (Assay 4) [1] [%] | IC50 (IL-17A production; CytoStim, 48 h) [nM] | other results
1 | CCS(=O)(=O)c1ccc(CNC(=O)c2cnc3c(c2)CN(C[C@H]2CC[C@H](C(F)(F)F)CC2)[C@H]3C(C)C)cc1 |  |  | hERG Assay (Compound at 3 μM) % Inhibition (Assay 4) ([1]; comparator compounds): 57.0%
2 | CCOC[C@H](NC(=O)c1cnc2c(c1)CN(C[C@H]1CC[C@H](C(F)(F)F)CC1)[C@H]2C(C)C)c1ccc(S(=O)(=O)CC)cc1 [Compound 7] |  |  | IC50 (full-length RORγt): 100 to 1000 nM; Ki [2]: < 100 nM
3 | CC[C@H]1c2ncc(C(=O)N[C@@H](COC)c3ccc(S(=O)(=O)CC)cc3)cc2CN1C[C@H]1CC[C@H](C(F)(F)F)CC1 [Compound 1, (S)-7-ethyl-N—((R)-1-(4-(ethylsulfonyl)phenyl)-2-methoxyethyl)-6-((trans-4-(trifluoromethyl)cyclohexyl)methyl)-6,7-dihydro-5H-pyrrolo[3,4-b]pyridine-3-carboxamide] | 24.3 |  | 
4 | CC[C@H]1c2ncc(C(=O)N[C@@H](COC)c3ccc(S(=O)(=O)CC)cc3)cc2CN1C[C@@H]1CC[C@@H](C(F)(F)F)OC1 (single isomer, unassigned) [Compound 4] |  | < 100 | 
5 | CCS(=O)(=O)c1ccc([C@@H](COC(N)=O)NC(=O)c2cnc3c(c2)CN(C[C@H]2CC[C@H](C(F)(F)F)CC2)[C@H]3C(C)C)cc1 [Compound 12] | 38.8 | 100 to 200 | 
6 | CCS(=O)(=O)c1ccc(CNC(=O)c2cnc3c(c2)CN(C[C@H]2CC[C@H](C(F)(F)F)CC2)[C@H]3C(C)C)nc1 |  |  | IC50 (IL-17A production; comparator compounds): > 200 nM; hERG Assay (Compound at 3 μM) % Inhibition (Assay 4) ([1]; comparator compounds): 45.4%
7 | CC[C@H]1c2ncc(C(=O)N[C@@H](COC(N)=O)c3ccc(S(=O)(=O)CC)cc3)cc2CN1C[C@H]1CC[C@H](C(F)(F)F)CC1 [Compound 2, (R)-2-((S)-7-ethyl-6-((trans-4-(trifluoromethyl)cyclohexyl)methyl)-6,7-dihydro-5H-pyrrolo[3,4-b]pyridine-3-carboxamido)-2-(4-(ethylsulfonyl)phenyl)ethyl Carbamate] | 38.8 |  | 
8 | CCS(=O)(=O)c1ccc([C@H](COC)NC(=O)c2cnc3c(c2)CN(C[C@H]2CC[C@H](C(F)(F)F)CC2)[C@H]3C(C)C)cc1 [Compound 15] | 50 | < 100 | 
9 | CC[C@H]1c2ncc(C(=O)N[C@@H](COC)c3ccc(S(=O)(=O)CC)cc3)cc2CN1C[C@H]1CC[C@H](C(F)(F)F)OC1 (single isomer, unassigned) [Compound 3] | 24.3 | < 100 | 
